Results on 28 molecules are retold here after patent publication US7595401B2, “Therapeutic compounds and their use in cancer” (Myriad Pharmaceuticals, Inc., priority 2006, dated 2009).

For one assay, the system named is purified human Hsp90. Kind of assay: Binding Assay: fluorescence polarization with BODIPY-labeled geldanamycin. The note with it: 5 μM compound, BODIPY-GM 10 nM, Hsp90 30 nM. An outline of the steps:
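Fluorescence polarization competition with BODIPY-geldanamycin (10 nM final) and human Hsp90 (30 nM final) in HEPES-KOH pH 7.3 buffer with molybdate, NP-40, DTT; 2% DMSO, overnight at room temperature. Read 485/530 nm; percent inhibition from mP normalized to DMSO controls, fluorescent-compound points excluded.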
As a reminder, the % Inhibition is the percentage by which the read-out fell short of the control. For `Nc1ncn(CCC(N)C2CC2)c2nc(Sc3cc4c(cc3Br)OCO4)nc1-2` (stereo not shown) [Example 688, 3-(3-Amino-3-cyclopropylpropyl)-8-[(6-bromo-1,3-benzodioxol-5-yl)thio]-3H-purin-6-amine], the “% Inhibition at 5 μM Compound Concentration” value came to 30%. Still for that read-out and setting: with `CC(C)[C@H](NC(=O)OC(C)(C)C)C(=O)N1CCCC(CCn2cnc(N)c3nc(Sc4cc5c(cc4Br)OCO5)nc2-3)C1` (stereo partly drawn) [Example 698, tert-Butyl((1S)-1-{[3-(2-{6-amino-8-[(6-bromo-1,3-benzodioxol-5-yl)thio]-3H-purin-3-yl}ethyl)piperidin-1-yl]carbonyl}-2-methylpropyl)carbamate] the figure was 55%; with `CO[C@H](C)C(=O)N1CCC(CCn2cnc(N)c3nc(Sc4cc5c(cc4Br)OCO5)nc2-3)CC1` [Example 726, 8-[(6-Bromo-1,3-benzodioxol-5-yl)thio]-3-(2-{1-[(2R)-2-methoxypropanoyl]piperidin-4-yl}ethyl)-3 H-purin-6-amine], 26%. As for `CC(C)(C)OC(=O)N1CCC[C@H]1C(=O)N1CCC(CCn2cnc(N)c3nc(Sc4cc5c(cc4Br)OCO5)nc2-3)CC1` [Example 731, tert-Butyl(2S)-2-{[4-(2-{6-amino-8-[(6-bromo-1,3-benzodioxol-5-yl)thio]-3H-purin-3-yl}ethyl)piperidin-1-yl]carbonyl}pyrrolidine-1-carboxylate], the “% Inhibition at 5 μM Compound Concentration” value is 1.0%.

The same assay, now with this note: BODIPY-GM 10 nM, Hsp90 30 nM.
The IC50 is the midpoint of a concentration-inhibition curve. A lower IC50 goes with inhibition by little substance. With `Nc1ncnc2c1nc(Sc1cc3c(cc1Br)OCO3)n2CCC(N)C1CCSCC1` (stereo not shown) [Example 689, 9-[3-Amino-3-(tetrahydro-2H-thiopyran-4-yl)propyl]-8-[(6-bromo-1,3-benzodioxol-5-yl)thio]-9H-purin-6-amine], the IC50 amounted to 120 nM. This counts as sub-micromolar. The same measure, in the same setting: with `Nc1ncnc2c1nc(Sc1cc3c(cc1Br)OCO3)n2CCC(N)C1CCCCC1` (stereo not shown) [Example 690, 9-(3-Amino-3-cyclohexylpropyl)-8-[(6-bromo-1,3-benzodioxol-5-yl)thio]-9H-purin-6-amine] the figure was 290 nM; with `Nc1ncnc2c1nc(Sc1cc3c(cc1Br)OCO3)n2CCC(N)C1CCCC1` (stereo not shown) [Example 691, 9-(3-Amino-3-cyclopentyl-propyl)-8-(6-bromo-benzo[1,3]dioxol-5-ylsulfanyl)-9H-purin-6-ylamine], 125 nM; with `Nc1ncnc2c1nc(Sc1cc3c(cc1Br)OCO3)n2CCC(N)C1CCOCC1` (stereo not shown) [Example 692, 9-[3-Amino-3-(tetrahydro-pyran-4-yl)-propyl]-8-(6-bromo-benzo[1,3]dioxol-5-ylsulfanyl)-9H-purin-6-ylamine], 2000 nM. `C[C@H](NC(=O)OC(C)(C)C)C(=O)N1CCC(CCn2c(Sc3cc4c(cc3Br)OCO4)nc3c(N)ncnc32)CC1` [Example 693, [(S)-2-(4-{2-[6-Amino-8-(6-bromo-benzo[1,3]dioxol-5-ylsulfanyl) -purin-9-yl]-ethyl}-piperidin-1-yl)-1-methyl-2-oxo-ethyl]-carbamic acid tert-butyl ester]: the 50% inhibitory concentration (IC50) worked out at 59 nM. Still for that read-out and setting: in the case of `C[C@@H](NC(=O)OC(C)(C)C)C(=O)N1CCC(CCn2c(Sc3cc4c(cc3Br)OCO4)nc3c(N)ncnc32)CC1` [Example 695, tert-Butyl{(1R)-2-[4-(2-{6-amino-8-[(6-bromo-1,3-benzodioxol-5-yl)thio]-9H-purin-9-yl}ethyl)piperidin-l-yl]-1-methyl-2-oxoethyl}carbamate] it was 410 nM.

The molecule `CC(C)[C@H](NC(=O)OC(C)(C)C)C(=O)N1CCCC(CCn2c(Sc3cc4c(cc3Br)OCO4)nc3c(N)ncnc32)C1` (stereo partly drawn) [Example 697, tert-Butyl((1S)-1-{[3-(2-{6-amino-8-[(6-bromo-1,3-benzodioxol-5-yl)thio]-9H-purin-9-yl}ethyl)piperidin-1-yl]carbonyl}-2-methylpropyl)-carbamate] returned an IC50 of 600 nM. The IC50 values of the last two molecules are within 1.5-fold of each other. Same read-out and setting: with `CC(C)C[C@H](NC(=O)OC(C)(C)C)C(=O)N1CCC(CCn2c(Sc3cc4c(cc3Br)OCO4)nc3c(N)ncnc32)CC1` [Example 699, tert-Butyl((1S)-1-{[4-(2-{6-amino-8-[(6-bromo-1,3-benzodioxol-5-yl)thio]-9H-purin-9-yl}ethyl)piperidin-1-yl]carbonyl}-3-methylbutyl)carbamate] the figure was 600 nM; with `C[C@@H](NC(=O)OC(C)(C)C)C(=O)N1CCCC(CCn2c(Sc3cc4c(cc3Br)OCO4)nc3c(N)ncnc32)C1` (stereo partly drawn) [Example 701, tert-Butyl{(1R)-2-[3-(2-{6-amino-8-[(6-bromo-1,3-benzodioxol-5-yl)thio]-9H-purin-9-yl}ethyl)piperidin-1-yl]-1-methyl-2-oxoethyl}carbamate], 200 nM. Same read-out and setting: with `C[C@H](NC(=O)OC(C)(C)C)C(=O)N1CCCC(CCn2c(Sc3cc4c(cc3Br)OCO4)nc3c(N)ncnc32)C1` (stereo partly drawn) [Example 703, tert-Butyl{(1S)-2-[3-(2-{6-amino-8-[(6-bromo-1,3-benzodioxol-5-yl)thio]-9H-purin-9-yl}ethyl)piperidin-1-yl]-1-methyl-2-oxoethyl}carbamate] the figure was 190 nM. Same read-out and setting: with `CC(C)(C)OC(=O)NCC(=O)N1CCC(CCn2c(Sc3cc4c(cc3Br)OCO4)nc3c(N)ncnc32)CC1` [Example 705, tert-Butyl{2-[4-(2-{6-amino-8-[(6-bromo-1,3-benzodioxol-5-yl)thio]-9H-purin-9-yl}ethyl)piperidin-1-yl]-2-oxoethyl}carbamate] the figure was 80 nM.

`CN(C)CC(=O)N1CCC(CCn2c(Sc3cc4c(cc3Br)OCO4)nc3c(N)ncnc32)CC1` [Example 707, 8-[(6-Bromo-1,3-benzodioxol-5-yl)thio]-9-(2-{1-[(dimethylamino)acetyl]piperidin-4-yl}ethyl)-9H-purin-6-amine] showed an IC50 of 70 nM. This IC50 and that of the molecule before are within 1.5-fold of each other. The same measure, in the same setting: with `CC(C)(C)OC(=O)NC1(C(=O)N2CCC(CCn3c(Sc4cc5c(cc4Br)OCO5)nc4c(N)ncnc43)CC2)CC1` [Example 709, tert-Butyl(1-{[4-(2-{6-amino-8-[(6-bromo-1,3-benzodioxol-5-yl)thio]-9H-purin-9-yl}ethyl)piperidin-1-yl]carbonyl}cyclopropyl)carbamate] the figure was 230 nM; with `CC(C)(C)OC(=O)NC(C)(C)C(=O)N1CCC(CCn2c(Sc3cc4c(cc3Br)OCO4)nc3c(N)ncnc32)CC1` [Example 711], 600 nM.

`CC(C)[C@H](NC(=O)OC(C)(C)C)C(=O)N1CCC(CCn2c(Sc3cc4c(cc3Br)OCO4)nc3c(N)ncnc32)CC1` [Example 713, tert-Butyl((1S)-1-{[4-(2-{6-amino-8-[(6-bromo-1,3-benzodioxol-5-yl)thio]-9H-purin-9-yl}ethyl)piperidin-1-yl]carbonyl}-2-methylpropyl)carbamate] registered a 50% inhibitory concentration (IC50) of 495 nM. In turn, `C[C@@H](C(=O)N1CCC(CCn2c(Sc3cc4c(cc3Br)OCO4)nc3c(N)ncnc32)CC1)N(C)C(=O)OC(C)(C)C` [Example 715, tert-Butyl{(1S)-2-[4-(2-{6-amino-8-[(6-bromo-1,3-benzodioxol-5-yl)thio]-9H-purin-9-yl}ethyl)piperidin-1-yl]-1-methyl-2-oxoethyl}methylcarbamate] showed a 50% inhibitory concentration (IC50) of more than 2000 nM. In turn, `C[C@H](C(=O)N1CCC(CCn2c(Sc3cc4c(cc3Br)OCO4)nc3c(N)ncnc32)CC1)N(C)C(=O)OC(C)(C)C` [Example 717, tert-Butyl{(1R)-2-[4-(2-{6-amino-8-[(6-bromo-1,3-benzodioxol-5-yl)thio]-9H-purin-9-yl}ethyl)piperidin-1-yl]-1-methyl-2-oxoethyl}methylcarbamate] displayed a concentration for half-maximal inhibition (IC50) of 200 nM. The same measure, in the same setting: with `CC(C)C[C@H](NC(=O)OC(C)(C)C)C(=O)N1CCCC(CCn2c(Sc3cc4c(cc3Br)OCO4)nc3c(N)ncnc32)C1` (stereo partly drawn) [Example 719, tert-Butyl((1S)-1-{[3-(2-{6-amino-8-[(6-bromo-1,3-benzodioxol-5-yl)thio]-9H-purin-9-yl}ethyl)piperidin-1-yl]carbonyl}-3-methylbutyl)carbamate] the figure was 800 nM. `COCC(=O)N1CCC(CCn2c(Sc3cc4c(cc3Br)OCO4)nc3c(N)ncnc32)CC1` [Example 722, 8-[(6-Bromo-1,3-benzodioxol-5-yl)thio]-9-{2-[1-(methoxyacetyl)piperidin-4-yl]ethyl}-9H-purin-6-amine]: the IC50 is 130 nM. As to `CO[C@@H](C)C(=O)N1CCC(CCn2c(Sc3cc4c(cc3Br)OCO4)nc3c(N)ncnc32)CC1` [Example 724, 8-[(6-Bromo-1,3-benzodioxol-5-yl)thio]-9-(2-{1-[(2S)-2-methoxypropanoyl]piperidin-4-yl}ethyl)-9H-purin-6-amine], the IC50 was determined as 105 nM. The same measure, in the same setting: in the case of `CO[C@H](C)C(=O)N1CCC(CCn2c(Sc3cc4c(cc3Br)OCO4)nc3c(N)ncnc32)CC1` [Example 725, 8-[(6-Bromo-1,3-benzodioxol-5-yl)thio]-9-(2-{1-[(2R)-2-methoxypropanoyl]piperidin-4-yl}ethyl)-9H-purin-6-amine] it was 100 nM; in that of `CO[C@@H](C)C(=O)N1CCC(CCn2cnc(N)c3nc(Sc4cc5c(cc4Br)OCO5)nc2-3)CC1` [Example 727, 8-[(6-Bromo-1,3-benzodioxol-5-yl)thio]-3-(2-{1-[(2S)-2-methoxypropanoyl]piperidin-4-yl}ethyl)-3 H-purin-6-amine], 32000 nM. On the same count and under the same terms, with `CC(C)(C)OC(=O)N1CC[C@H]1C(=O)N1CCC(CCn2c(Sc3cc4c(cc3Br)OCO4)nc3c(N)ncnc32)CC1` [Example 728, tert-Butyl(2S)-2-{[4-(2-{6-amino-8-[(6-bromo-1,3-benzodioxol-5-yl)thio]-9H-purin-9-yl}ethyl)piperidin-1-yl]carbonyl}azetidine-1-carboxylate] the figure was 200 nM. The same measure, in the same setting: with `CC(C)(C)OC(=O)N1CCC[C@H]1C(=O)N1CCC(CCn2c(Sc3cc4c(cc3Br)OCO4)nc3c(N)ncnc32)CC1` [Example 730, tert-Butyl(2S)-2-{[4-(2-{6-amino-8-[(6-bromo-1,3-benzodioxol-5-yl)thio]-9H-purin-9-yl}ethyl)piperidin-1-yl]carbonyl}pyrrolidine-1-carboxylate] the figure was more than 5000 nM.
